Assay results reported in patent US8350027B2, “Dual-acting pyrazole antihypertensive agents” (Theravance, Inc., priority 2009, dated 2013).

Assays:
human AT1 receptor = target: T1, human AT1 receptor (Homo sapiens, UniProt P30556); assay: AT1 radioligand binding assay (displacement of [Eu]AngII); settings: membranes of CHO-K1 cells expressing cloned human AT1 receptor; values given as lower bounds; read-out: AT1 pKi (converted)
T1 construct: expressed in transfected cells; host or cells: CHO-K1
T1 sequence (P30556 1-359): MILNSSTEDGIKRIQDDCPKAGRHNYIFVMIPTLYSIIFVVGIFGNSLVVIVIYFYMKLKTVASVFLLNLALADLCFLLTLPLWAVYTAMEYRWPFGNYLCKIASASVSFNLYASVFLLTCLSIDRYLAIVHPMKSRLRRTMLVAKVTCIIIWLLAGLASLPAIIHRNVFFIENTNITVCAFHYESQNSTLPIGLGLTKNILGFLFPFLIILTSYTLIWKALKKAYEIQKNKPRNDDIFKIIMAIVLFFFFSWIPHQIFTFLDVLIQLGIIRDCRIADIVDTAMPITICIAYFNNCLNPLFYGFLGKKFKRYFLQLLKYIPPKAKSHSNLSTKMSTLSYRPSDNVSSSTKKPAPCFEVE
In short: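 Membranes from CHO-K1 cells stably expressing cloned human AT1, 0.2 μg protein, in 50 mM Tris/HCl pH 7.5, 5 mM MgCl2, 0.025% BSA. Compounds displaced [Eu]AngII over 120 min in the dark at room temperature or 37° C; filter-bound TRF read. Nonspecific binding with 10 μM angiotensin II; IC50 converted to Ki via Cheng-Prusoff, reported as pKi.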

NEP enzyme = target: T2, NEP enzyme (Homo sapiens, UniProt P08473); assay: NEP enzyme inhibition assay (fluorogenic peptide substrate); type: biochemical; settings: values given as lower bounds; * = prodrugs, may not exhibit NEP activity in an in vitro assay; read-out: NEP pIC50 (converted)
T2 construct: purchased R&D Systems, Minneapolis, Minn; 1182-ZN
In short: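 Recombinant human NEP was run with Mca-BK2 (10 μM) at room temperature in Tris buffer with 1 μM Zn. Compounds (10 μM–20 pM, 12 points) were pre-equilibrated 10 min, then reacted 20 min and acid-stopped. Fluorescence ex 320/em 405 nm, one-site competition fit gives pIC50. Thiol compounds may be pre-treated with 400 μM TCEP.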

T2 sequence (P08473 52-750 limits assumed): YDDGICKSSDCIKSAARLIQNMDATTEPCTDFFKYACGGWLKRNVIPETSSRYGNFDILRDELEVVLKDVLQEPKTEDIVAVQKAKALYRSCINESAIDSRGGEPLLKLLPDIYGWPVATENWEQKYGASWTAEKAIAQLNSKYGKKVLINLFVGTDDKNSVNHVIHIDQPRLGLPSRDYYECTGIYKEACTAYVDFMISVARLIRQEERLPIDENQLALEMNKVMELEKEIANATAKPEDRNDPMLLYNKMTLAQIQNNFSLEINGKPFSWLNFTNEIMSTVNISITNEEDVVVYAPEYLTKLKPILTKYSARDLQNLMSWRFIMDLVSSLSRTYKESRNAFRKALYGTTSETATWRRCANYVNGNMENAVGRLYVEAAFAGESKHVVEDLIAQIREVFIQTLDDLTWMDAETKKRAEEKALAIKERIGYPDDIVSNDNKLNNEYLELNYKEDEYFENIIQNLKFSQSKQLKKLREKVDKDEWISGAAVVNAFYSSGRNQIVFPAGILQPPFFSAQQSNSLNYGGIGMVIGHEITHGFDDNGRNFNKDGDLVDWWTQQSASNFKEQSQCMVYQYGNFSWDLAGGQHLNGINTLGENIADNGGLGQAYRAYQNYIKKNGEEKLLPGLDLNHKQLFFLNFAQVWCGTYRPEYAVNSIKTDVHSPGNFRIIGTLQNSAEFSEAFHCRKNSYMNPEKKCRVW

SMILES | Ki (human AT1 receptor) | IC50 (NEP enzyme)
CCCc1cc(C(=O)N[C@@H](CC(=O)NO)Cc2ccccc2Cl)nn1Cc1ccc(-c2ccccc2-c2nnn[nH]2)cc1 [Example 3-15, 5-Propyl-1-[2′-(1H-tetrazol-5-yl)-biphenyl-4-ylmethyl]-1H-pyrazole-3-carboxylic acid [(R)-2-(2-chlorophenyl)-1-hydroxycarbamoylmethylethyl]amide] | ≤ 0.01 µM | ≤ 0.1 µM
CCCc1cc(C(=O)N[C@@H](CS)Cc2ccccc2)nn1Cc1ccc(-c2ccccc2-c2nnn[nH]2)cc1 [Example 3-6, 5-Propyl-1-[2′-(1H-tetrazol-5-yl)biphenyl-4-ylmethyl]-1H-pyrazole-3-carboxylic acid ((R)-1-benzyl-2-mercaptoethyl)amide] | ≤ 0.01 µM | ≤ 0.1 µM
CCCc1cc(C(=O)N[C@H](Cc2ccccc2)[C@@H](O)C(=O)O)nn1Cc1ccc(-c2ccccc2S(=O)(=O)NC(=O)CO)cc1 [Example 7-15, (2R,3R)-2-Hydroxy-3-({1-[2′-(2-hydroxyacetylsulfamoyl)biphenyl-4-ylmethyl]-5-propyl-1H-pyrazole-3-carbonyl}amino)-4-phenylbutyric acid] | ≤ 0.01 µM | ≤ 0.1 µM
CCCc1cc(C(=O)N[C@@H](CC(=O)NO)Cc2ccccc2)nn1Cc1c(F)cc(-c2ccccc2S(=O)(=O)NC(C)=O)cc1F [Example 6-20, 1-(2′-Acetylsulfamoyl-3,5-difluorobiphenyl-4-ylmethyl)-5-propyl-1H-pyrazole-3-carboxylic acid ((R)-1-hydroxycarbamoylmethyl-2-phenylethyl)amide] | ≤ 0.01 µM | ≤ 0.1 µM
CCCc1cc(C(=O)N[C@@H](CS)CC(C)C)nn1Cc1ccc(-c2ccccc2-c2nnn[nH]2)cc1F [Example 3-3, 1-[3-Fluoro-2′-(1H-tetrazol-5-yl)biphenyl-4-ylmethyl]-5-propyl-1H-pyrazole-3-carboxylic acid ((R)-1-mercaptomethyl-3-methylbutyl)amide] | ≤ 0.1 µM | ≤ 0.1 µM
CCOc1cc(C(=O)N[C@@H](CC(=O)O)Cc2ccccc2)nn1Cc1ccc(-c2ccccc2-c2nnn[nH]2)cc1F [Example 3-31, (R)-3-({5-Ethoxy-1-[3-fluoro-2′-(1H-tetrazol-5-yl)biphenyl-4-ylmethyl]-1H-pyrazole-3-carbonyl}amino)-4-phenylbutyric acid] | ≤ 0.1 µM | ≤ 10 µM
CCCCc1cc(C(=O)N[C@@H](CS)CC(C)C)nn1Cc1ccc(-c2ccccc2C(=O)O)cc1F [Example 9-3, 4′-[5-Butyl-3-((R)-1-mercaptomethyl-3-methylbutylcarbamoyl)-pyrazol-1-ylmethyl]-3′-fluorobiphenyl-2-carboxylic acid] | ≤ 0.1 µM | ≤ 0.1 µM
CCOc1cc(C(=O)N[C@@H](CS)CC(C)C)nn1Cc1ccc(-c2ccccc2-c2nnn[nH]2)cc1 [Example 3-5, 5-Ethoxy-1-[2′-(1H-tetrazol-5-yl)biphenyl-4-ylmethyl]-1H-pyrazole-3-carboxylic acid ((R)-1-mercaptomethyl-3-methylbutyl)amide] | ≤ 0.1 µM | ≤ 0.1 µM
CCCc1cc(C(=O)N[C@H](Cc2ccccc2)[C@@H](O)C(=O)O)nn1Cc1ccc(-c2ccccc2S(=O)(=O)NC(=O)[C@@H](C)O)cc1 [Example 7-16, (2R,3R)-2-Hydroxy-3-({1-[2′-((R)-2-hydroxypropionylsulfamoyl)biphenyl-4-ylmethyl]-5-propyl-1H-pyrazole-3-carbonyl}amino)-4-phenylbutyric acid] | ≤ 0.01 µM | ≤ 0.1 µM
CCc1cc(C(=O)N[C@H](Cc2ccccc2)[C@@H](O)C(=O)O)nn1Cc1ccc(-c2ccccc2-c2nnn[nH]2)cc1F [Example 3-37, (2R,3R)-3-({5-Ethyl-1-[3-fluoro-2′-(1H-tetrazol-5-yl)-biphenyl-4-ylmethyl]-1H-pyrazole-3-carbonyl}amino)-2-hydroxy-4-phenylbutyric acid] | ≤ 0.1 µM | ≤ 10 µM
CCCc1cc(C(=O)N[C@@H](CC(=O)O)Cc2ccccc2)nn1Cc1ccc(-c2ccccc2-c2nnn[nH]2)cc1 [Example 2, (R)-4-Phenyl-3-({5-propyl-1-[2′-(1H-tetrazol-5-yl)-biphenyl-4-ylmethyl]-1H-pyrazole-3-carbonyl}amino)butyric Acid] | ≤ 0.01 µM | ≤ 10 µM
CCCc1cc(C(=O)N[C@H](Cc2ccccc2)[C@@H](O)C(=O)O)nn1Cc1c(F)cc(-c2ccccc2S(=O)(=O)NC(C)=O)cc1F [Example 6-19, (2R,3R)-3-(1-((2′-(N-acetylsulfamoyl)-3,5-difluorobiphenyl-4-yl)methyl)-5-propyl-1H-pyrazole-3-carboxamido)-2-hydroxy-4-phenylbutanoic acid] | ≤ 0.01 µM | ≤ 0.1 µM
CCCc1cc(C(=O)N[C@@H](CS)Cc2ccccc2)nn1Cc1ccc(-c2ccccc2C(=O)O)cc1 [Example 9-6, 4′-[3-((R)-1-Mercaptomethyl-2-phenylethylcarbamoyl)-5-propylpyrazol-1-ylmethyl]biphenyl-2-carboxylic acid] | ≤ 0.1 µM | ≤ 0.1 µM
CCCc1cc(C(=O)N[C@H](Cc2ccccc2)[C@@H](O)C(=O)O)nn1Cc1ccc(-c2ccccc2-c2nnn[nH]2)cc1F [Example 3-23, (2R,3R)-3-(1-((3-fluoro-2′-(1H-tetrazol-5-yl)biphenyl-4-yl)methyl)-5-propyl-1H-pyrazole-3-carboxamido)-2-hydroxy-4-phenylbutanoic acid] | ≤ 0.01 µM | ≤ 0.1 µM

Results, then the compound that gave them:

Ki (human AT1 receptor) | IC50 (NEP enzyme) | SMILES
≤ 0.1 µM | ≤ 0.1 µM | CCCc1cc(C(=O)N[C@H](Cc2ccccc2)[C@@H](O)C(=O)O)nn1Cc1ccc(-c2ccccc2S(=O)(=O)NC(C)=O)cn1 [Example 15-3, (2R,3R)-3-({1-[5-(2-Acetylsulfamoylphenyl)pyridin-2-ylmethyl]-5-propyl-1H-pyrazole-3-carbonyl}amino)-2-hydroxy-4-phenylbutyric acid]
≤ 0.01 µM | ≤ 0.1 µM | CCCc1cc(C(=O)N[C@H](Cc2ccccc2)[C@@H](O)C(=O)O)nn1Cc1ccc(-c2ccccc2-c2nnn[nH]2)nc1 [Example 14-1, (2R,3R)-2-Hydroxy-4-phenyl-3-[(5-propyl-1-{6-[2-(1H-tetrazol-5-yl)-phenyl]pyridin-3-ylmethyl}-1H-pyrazole-3-carbonyl)amino]butyric acid]
≤ 0.01 µM | ≤ 1 µM | CCCc1cc(C(=O)N[C@@H](CC(=O)O)Cc2ccccc2)nn1Cc1cnc(-c2ccccc2S(=O)(=O)NC(C)=O)cn1 [Example 17-4, (R)-3-({1-[5-(2-Acetylsulfamoylphenyl)pyrazin-2-ylmethyl]-5-propyl-1H-pyrazole-3-carbonyl}amino)-4-phenylbutyric acid]
≤ 0.01 µM | ≤ 1 µM | CCCc1cc(C(=O)N[C@@H](CC(=O)O)Cc2ccccc2Cl)nn1Cc1cnc(-c2ccccc2-c2nnn[nH]2)cn1 [Example 17-2, (R)-4-(2-Chlorophenyl)-3-[(5-propyl-1-{5-[2-(1H-tetrazol-5-yl)phenyl]pyrazin-2-ylmethyl}-1H-pyrazole-3-carbonyl)amino]butyric acid]
≤ 0.01 µM | ≤ 1 µM | CCCc1cc(C(=O)N[C@@H](CC(=O)O)Cc2ccco2)nn1Cc1ccc(-c2ccccc2-c2nnn[nH]2)nc1 [Example 14-11, (R)-4-Furan-2-yl-3-[(5-propyl-1-{6-[2-(1H-tetrazol-5-yl)phenyl]pyridin-3-ylmethyl}-1H-pyrazole-3-carbonyl)amino]butyric acid]
